Assay results: article PMC6476888, “Design and synthesis of anticancer 1-hydroxynaphthalene-2-carboxanilides with a p53 independent mechanism of action” (Scientific Reports, 2019)
Where two headings read alike, the source gives them in different places.

Key:
HCT116^+/+ = assay: Antiproliferative assay (MTS, 72 h) on HCT116 wild type; type: cell-based, human; conditions: MTS, 72 h incubation, read-out: Activity IC50 HCT116^+/+
Method: (§1) All of the synthesized compounds were tested for their antiproliferative activity against human colon cancer (Table 1). We used both the wild-type and p53-negative cell lines (HCT116^+/+ and HCT116^−/−, respectively). Mutations in the TP53 gene are present in more than 50% of all cancers and often specifically correspond to a difficult therapy, resistance or a bad prognosis[60]–[63]. The active compounds were additionally tested for their cytotoxicity against normal human fibroblasts. We used 5-fluorouracil (5-FLU), doxorubicin (DOX) and CP-31398 as the standards. 5-FLU is one of the first antimetabolites that was dedicated for cancer treatment and is still used for a wide range of cancers including colon carcinoma. Doxorubicin is a DNA topoisomerase II poison with a high intercalating potency, which is able to induce apoptosis through the p53 pathway. Although DOX has been described as being ineffective in some p53 mutants, its level of activity against the p53 null lines is similar. CP-31398, on the other hand, is an experimental drug in the clinical phase and its mechanism of action is through the reactivation some of p53 mutants. Its activity against the p53 null cell lines is greatly diminished and is actually lower than its cytotoxicity.
(§2) The human colon cancer cell line HCT116 wild type was obtained from ATCC and the normal human fibroblast cell lines NHDF were obtained from PromoCell. The human colon cancer cell line HCT116 with a p53 deletion (p53^−/−) was kindly provided by Prof. M. Rusin from the Maria Sklodowska-Curie Memorial Cancer Centre and Institute of Oncology in Gliwice, Poland[89]. The cells were grown as monolayer cultures in Dulbecco’s modified Eagle’s medium with the antibiotic gentamicin (200 μL/100 mL medium) in 75 cm^2 flasks (Nunc). The DMEM for the HCT116 were supplemented with 12% heat-inactivated fetal bovine serum (Sigma-Aldrich, St. Louis, MO, USA) and for NHDF with 15% non-inactivated fetal bovine serum (Sigma Aldrich, St. Louis, MO, USA). The cells were cultured under standard conditions at 37 °C in a humidified atmosphere at 5% CO2.
(§3) The cells were seeded in 96-well plates (Nunc) at a density of 5,000 cells/well (HCT116) and 4,000 cells/well (NHDF) and incubated at 37 °C for 24 h. The assay was performed following a 72 h incubation with varying concentrations of the compounds that were being tested. Then, 20 µL of CellTiter 96® AQueous One Solution-MTS (Promega) was added to each well (with 100 µL DMEM without phenol red) and incubated for 1 h at 37 °C. The optical densities of the samples were analyzed at 490 nm using a Synergy 4 multi-plate reader (BioTek, Winooski, VT, USA). The results are expressed as the percentage of the control and were calculated as the inhibitory concentration (IC50) values (using a GraphPad Prism 7). The IC50 parameter was defined as the compound concentration that was necessary to reduce the proliferation of cells to 50% of the untreated control. Each individual compound was tested in triplicate in a single experiment with each experiment being repeated three or four times.

HCT116^−/− = assay: Antiproliferative assay (MTS, 72 h) on HCT116 with p53 deletion; type: cell-based, human; conditions: for IC50: MTS, 72 h incubation
Method: as §1, §2, §3

NHDF = assay: Cytotoxicity (MTS, 72 h) against normal human fibroblasts; type: cell-based; conditions: for IC50: MTS, 72 h incubation
Method: as §1, §2, §3

Row | Structure (SMILES) | IC50 (HCT116^+/+) | IC50 (HCT116^−/−) | IC50 (NHDF) | also measured
1 | O=C(Nc1ccccc1Cl)c1ccc2ccccc2c1O [5a] | 16.5 ± 2.25 µM | 22.4 ± 3.58 µM | > 25 µM | 
2 | O=C(Nc1c(Br)cc(Br)cc1Br)c1ccc2ccccc2c1O [6g] | > 25 µM | > 25 µM |  | 
3 | O=C(Nc1cc(Br)ccc1Cl)c1ccc2ccccc2c1O [5q] | 4.18 ± 1.49 µM | 5.4 ± 2.04 µM | > 25 µM | 
4 | O=C(Nc1ccc([N+](=O)[O-])cc1)c1ccc2ccccc2c1O [8c] | 0.41 ± 0.05 µM | 0.69 ± 0.09 µM | 12.3 ± 1.49 µM | selectivity index (NHDF; cytotoxicity against the normal cell line vs HCT116): 30
5 | O=C(Nc1cc(Cl)cc(Cl)c1)c1ccc2ccccc2c1O [5i] | 2.32 ± 0.26 µM | 2.89 ± 0.38 µM | 11.5 ± 0.88 µM | 
6 | O=C(Nc1ccc([N+](=O)[O-])c(C(F)(F)F)c1)c1ccc2ccccc2c1O [7p] | 1.64 ± 0.47 µM | 1.39 ± 0.44 µM | 9.68 ± 1.49 µM | 
7 | O=C(Nc1cc(C(F)(F)F)ccc1Cl)c1ccc2ccccc2c1O [5r] |  |  |  | IC50 (HCT116^+/+; Homo sapiens, HCT-116): 2.48 ± 0.31 µM; IC50 (HCT116^−/−; Homo sapiens, HCT-116): 1.46 ± 0.21 µM; IC50 (NHDF; Homo sapiens, NHDF): 12.4 ± 1.14 µM
8 | O=C(Nc1ccc(C(F)(F)F)cc1Cl)c1ccc2ccccc2c1O [5o] | 4.92 ± 1.32 µM | 5.41 ± 1.11 µM | 13.2 ± 1.97 µM | 
9 | Cc1ccc(C)c(NC(=O)c2ccc3ccccc3c2O)c1 [3d] |  |  |  | IC50 (HCT116^+/+; Homo sapiens, HCT-116): > 25 µM; IC50 (HCT116^−/−; Homo sapiens, HCT-116): > 25 µM
10 | O=C(Nc1cc(C(F)(F)F)ccc1Br)c1ccc2ccccc2c1O [6k] | 8.18 ± 1.72 µM | 7.15 ± 1.96 µM | 22.2 ± 0.83 µM | 
11 | O=C(Nc1ccc(Br)c(Cl)c1)c1ccc2ccccc2c1O [5t] | 12.3 ± 0.79 µM | 12.6 ± 0.69 µM | > 25 µM | selectivity towards the p53 null cells (HCT116 p53^−/− vs wild type) (HCT116^−/−): not selective
12 | O=C(Nc1cc(C(F)(F)F)ccc1C(F)(F)F)c1ccc2ccccc2c1O [7e] | 4.44 ± 1.16 µM | 8.53 ± 3.37 µM | 22.9 ± 2.1 µM | 
13 | O=C(Nc1ccc(Br)cc1C(F)(F)F)c1ccc2ccccc2c1O [7i] | > 25 µM | > 25 µM |  | 
14 | Cc1ccc(NC(=O)c2ccc3ccccc3c2O)cc1 [3c] | > 25 µM | > 25 µM |  | 
15 | O=C(Nc1ccc(Br)cc1Br)c1ccc2ccccc2c1O [6d] | 4.56 ± 0.43 µM | 4.61 ± 0.72 µM | > 25 µM | 
16 | O=C(Nc1cc(Br)ccc1Br)c1ccc2ccccc2c1O [6e] | 5.24 ± 0.28 µM | 5.85 ± 0.61 µM | > 25 µM | 
17 | O=C(Nc1cccc(F)c1)c1ccc2ccccc2c1O [4b] | 1.88 ± 0.33 µM | 9.02 ± 1.91 µM | > 25 µM | 
18 | COc1cc(NC(=O)c2ccc3ccccc3c2O)cc(OC)c1 [2e, N-(3,5-dimethoxyphenyl)−1-hydroxynaphthalene-2-carboxamide] |  |  |  | IC50 (HCT116^+/+; Homo sapiens, HCT-116): > 25 µM; IC50 (HCT116^−/−; Homo sapiens, HCT-116): > 25 µM; IC50 (NHDF; Homo sapiens, NHDF): > 25 µM
19 | O=C(Nc1c(Cl)cccc1Cl)c1ccc2ccccc2c1O [5g] | > 25 µM | > 25 µM |  | 
20 | O=C(Nc1cc(Cl)c(Cl)cc1Cl)c1ccc2ccccc2c1O [5j] | 3 ± 0.24 µM | 6.21 ± 0.66 µM | 20.2 ± 0.79 µM | 
21 | O=C(Nc1ccc(C(F)(F)F)c(F)c1)c1ccc2ccccc2c1O [4w] |  |  |  | IC50 (HCT116^+/+; Homo sapiens, HCT-116): 3.25 ± 0.94 µM; IC50 (HCT116^−/−; Homo sapiens, HCT-116): 4.82 ± 1.46 µM; IC50 (NHDF; Homo sapiens, NHDF): 22.8 ± 2.69 µM
22 | O=C(Nc1ccc(F)cc1)c1ccc2ccccc2c1O [4c] | 2.49 ± 0.61 µM | 5.01 ± 1.12 µM | > 25 µM | 
23 | Cc1cc(C)cc(NC(=O)c2ccc3ccccc3c2O)c1 [3f] |  |  |  | IC50 (HCT116^+/+; Homo sapiens, HCT-116): 19.3 ± 1.68 µM; IC50 (HCT116^−/−; Homo sapiens, HCT-116): > 25 µM; IC50 (NHDF; Homo sapiens, NHDF): > 25 µM
24 | O=C(Nc1c(Cl)cc(Cl)cc1Cl)c1ccc2ccccc2c1O [5k] | 19.4 ± 1.27 µM | > 25 µM | > 25 µM | 
25 | O=C(Nc1ccc(Cl)cc1Br)c1ccc2ccccc2c1O [6h] | 9.54 ± 2.71 µM | 13.2 ± 2.3 µM | > 25 µM | 
26 | Cc1ccccc1NC(=O)c1ccc2ccccc2c1O [3a] | > 25 µM | > 25 µM |  | 
27 | O=C(Nc1ccccc1)c1ccc2ccccc2c1O [compound 1] |  |  |  | IC50 (HCT116^+/+; Homo sapiens, HCT-116): > 25 µM; IC50 (HCT116^−/−; Homo sapiens, HCT-116): > 25 µM
28 | COc1ccc(NC(=O)c2ccc3ccccc3c2O)cc1 [2c] | > 25 µM | > 25 µM |  | 
